Laboratory results published in patent US20230183751A1, “HDR ENHANCERS” (OXFORD GENETICS LIMITED, priority 2020, published 2023).

Legend:
HEK reporter cell line = test: cell-viability assay with alamar blue reagent; assay type: cell-based, human; details: 72 hours
Description: To investigate the effect of this library on HDR efficiency and to identify novel molecules which would increase the HDR mediated gene editing efficiency, first we carried out a cell-viability assay using the HEK reporter cell line and alamar blue reagent. The experiment was performed to rule out any toxicity associated with the small molecule library. Briefly, 3 different concentration of inhibitors (0.1 μM, 1 μM and 10 μM) were added in the cells in a 96 well plate format and plates were incubated for 72 hours. After 72 hours, the media were replaced with alamar blue containing media and the plates were further incubated for 3 hours and then read on a Fluorstar omega plate reader. The table gives the results obtained with the subsequently-selected inhibitors, together with a range of other potential inhibitors.

[1] = test system: HDR in HEK293 reporter cell line (truncated EGFP); test: HDR assay with paired nickases Cas9n D10A RNP and ssOligo donor, EGFP-positive cells by FACS; assay type: cell-based, human; details: FIG. 3; for dose-dependency of HDR efficiency: three concentrations (low, medium, high); for concentration with highest HDR efficiency: three concentrations tested
Description: More specifically, an HDR assay using a HEK reporter cell line containing truncated EGFP may be used. These cells may be transfected with a transfection complex containing the CRISPR endonuclease and a donor sequence. Cas9 RNPs may be prepared by following the manufacturers' guidelines. The transfection complex may be prepared by adding Cas9 RNP or Cas9 nickase RNP, along with ssOligo donor and lipofectamine 2000 in Optimem. Reagents should be mixed well and incubated for 20 mins. After 20 mins, 50 μlof transfection complex (at an optimal concentration—see the Examples herein) may be transferred in a 96 well plate and 50 μlHEK293 reporter cell line suspension (9×10^5 cells/ml) added followed by 50 μl of cell culture medium containing appropriate concentration(s) of inhibitor(s). Cells may be incubated at 37° C. in a CO2 incubator for 24 hours and then inhibitor-containing media should be replaced with fresh media without inhibitor. Cells are then further incubated for 48 hours. After 48 hours, cells may be trypsinized and resuspended in PBS containing 10% FBS. Samples may be run on FACS and the percentage of EGFP in the population measured. Presence of EGFP directly correlates with HDR efficiency. […]
To understand if inhibitors have any influence on HDR mediated by paired nickases, we carried out an HDR assay in the presence of the small molecule inhibitor library. Briefly, in vitro reconstituted Cas9n D10A RNP with gRNA-X1 and gRNA-X2 was transfected into the reporter cell line along with ssOligo donor in the presence of different small molecule inhibitors. Inhibitor-containing media was replaced with fresh media after 24 hours and the cells were then further incubated for 48 hours. After 48 hours, the cells were trypsinized and resuspended in 10% FBS containing PBS and analysed by FACS. EGFP-positive cells were monitored; these represented successful HDR events. […]

Compound | % survival (HEK reporter cell line; 0.1 μM inhibitor) [%] | % survival (HEK reporter cell line; 1 μM inhibitor) [%] | % survival (HEK reporter cell line; 10 μM inhibitor) [%] | dose-dependency of HDR efficiency [1] | concentration with highest HDR efficiency [1] [µM]
Cl.O=C([C@@H](Cc1cccc(C(F)(F)F)c1)NS(=O)(=O)c1cc(F)c2c(c1)CCNC2)N1CCCC1 [(R)-PFI2 hydrochloride] | 102.58 ± 0.88 | 101.51 ± 4.1 | 96.42 ± 0.64 | dose-dependent increases in HDR efficiency | 20
Clc1cc2c(NC3CCCC3)nnc(-c3ccncc3)c2cc1Cl [A196] | 105.84 ± 0.05 | 107.75 ± 6.83 | 107.43 ± 0.21 | dose-dependent increases in HDR efficiency | 20
CN(C)[C@H]1CN(C2CCc3cccc(F)c32)C[C@@H]1c1ccc(N2CCN(S(C)(=O)=O)CC2)cc1 (some centres unmarked) [A395] | 100.35 ± 1.4 | 103.27 ± 0.32 | 87.94 ± 9.49 | did not show any significant dose-dependency | –
O=C(Nc1c[nH]nc1-c1nc2cc(CN3CCOCC3)ccc2[nH]1)NC1CC1 [AT9283] | – | – | – | moderate decreases in HDR efficiency upon increasing the inhibitor concentration | 0.05
CCN(C(=O)CO)[C@H]1CN(/C(=N\C#N)Nc2cccc(OC(F)F)c2)N=C1c1ccc(Cl)c(Cl)c1 [BAY598] | 102.45 ± 0.9 | 102.92 ± 0.42 | 101.44 ± 8.52 | dose-dependent increases in HDR efficiency | 20
COc1ccc(CCC(=O)Nc2nc3ccc(Cl)cc3s2)cc1OC [KY02111] | 100.52 ± 2.05 | 100.86 ± 1.83 | 95.18 ± 2.27 | did not show any significant dose-dependency | –
O=c1cc(N2CCOCC2)oc2c1ccc1ccccc12 [NU7026] | 100.08 ± 4.01 | 100.14 ± 4.13 | 83.17 ± 1.44 | – | –
O=c1cc(N2CCOCC2)oc2c(-c3cccc4c3sc3ccccc34)cccc12 [NU7441] | 103.58 ± 4.44 | 88.88 ± 3.55 | 22.95 ± 0.98 | dose-dependent increases in HDR efficiency | 2
CCCCc1nc2cc(/C=C/C(=O)NO)ccc2n1CCN(CC)CC [SB939] | 80.99 ± 1.01 | 15.56 ± 2.26 | 2.25 ± 0.31 | moderate decreases in HDR efficiency upon increasing the inhibitor concentration | 0.05
